Assay results as given in US6197926A, “Methods for treatment of diabetes using peptide analogues of insulin” (Neurocrine Biosciences, priority 1999, dated 2001).

Key:
Test in all cases: Proliferation of insulin-specific NOD T cell clone
Assay type in all cases: cell-based, mouse
Settings in all cases: 50 μg/ml peptide, 72 hours
[1] = test system: T cell clone PD6-4.3
Procedure: (§1) Insulin specific NOD T cell lines were established by culturing lymphocytes isolated from islet-infiltrating populations by in vitro stimulation with either porcine insulin at 25 μg/ml and irradiated NOD islet cells in the presence of irradiated NOD spleen cells as antigen presenting cells and cytokines. To obtain the infiltrating lymphocytes the following procedures were performed (see WeLimann et al., Eur. J. Immunol. 24:1853, 1994): the pancreas from the NOD mouse was digested with collatenase and individual islets were isolated manually. The infiltrating lymphocytes were then obtained by mild trypsin digestion of the islets. The insulin specific T cell lines or clones were propagated by serial stimulation in the presence of NOD spleen cells, porcine insulin and lymphokines. Clones were obtained by limiting dilution of the B chain (9-23) specific T cell lines in the presence of the antigen presenting cells and porcine insulin at 25 μg/ml. Wells with a growing population of cells following limiting dilution were expanded in appropriate medium, and after one cycle of growth were tested for reactivity to the B chain (9-23) peptide of insulin by evaluating the proliferative response.
(§2) Insulin B chain (9-23) (SEQ ID NO:2) specific mouse (NOD) T cell clones were isolated from infiltrated islets as described in Example 2. Peptide analogues with single alanine substitutions were prepared as described in Example 1. The effect of each analogue on T cell prolircration was then evaluated using an assay performed in 96-well flat bottom microtiter plates (see Daniel et al., Eur. J. Immunol. 25 :1056, 1995). Briefly 25,000 T cell clones along with 1 million irradiated NOD spleen cells were cultured in the presence of 50 μg/ml of insulin B chain 9-23 peptide or any of the alanine substituted peptides listed below in triplicate sets. The plates were incubated for a total of 72 hours in 7% carbon dioxide atmosphere with a pulse of 1 μCi/well of tritiated thymidine for the last 6-8 hours of culture. Cells were harvested on a glass fiber filter and the associated radioactivity was counted in a liquid scintillation counter. Results are expressed as mean counts per minute of triplicate wells.

[2] = test system: T cell clone PD12-4.29
Procedure: as §1, §2

[3] = test system: T cell clone PD12-4.34
Procedure: as §1, §2

[4] = test system: T cell clone PD12-4.4
Procedure: as §1, §2

[5] = test system: T cell clone PD12-2.40
Procedure: as §1, §2
NOD T cell clones were incubated in the presence of 50 μM of either the native B chain (9-23) peptide or NBI-6024. The data in Table 3 represent the mean of triplicate sample±standard error of the mean. Within Table 3, S.I. (Stimulation Index)=proliferation (cpm) in the presence of the peptide/proliferation (cpm) in medium alone.

Substance	Response (cpm) [1] [cpm]	Response (cpm) [2] [cpm]	Response (cpm) [3] [cpm]	Response (cpm) [4] [cpm]	Response (cpm) [5] [cpm]
Modified Position 10: insulin B chain (9-23) peptide analogue with native residue H at position 10 substituted with alanine	12507	15484	356	823	1409
Modified Position 11: insulin B chain (9-23) peptide analogue with native residue L at position 11 substituted with alanine	14148	18416	190	474	2594
Modified Position 19: insulin B chain (9-23) peptide analogue with native residue C at position 19 substituted with alanine	7678	6054	689	4295	34212
Modified Position 20: insulin B chain (9-23) peptide analogue with native residue G at position 20 substituted with alanine	2440	13736	466	1323	38685
Modified Position 21: insulin B chain (9-23) peptide analogue with native residue E at position 21 substituted with alanine	91	4904	773	7900	39087
Modified Position 22: insulin B chain (9-23) peptide analogue with native residue R at position 22 substituted with alanine	6555	12635	1555	1313	51722
Modified Position 23: insulin B chain (9-23) peptide analogue with native residue G at position 23 substituted with alanine	14304	18422	791	3228	75441
